Data reported in patent US12091402B2 (Avilar Therapeutics, Inc., priority 2021, dated 2024).
Like-named read-outs stand apart in the source and are kept apart here. *1 amine or outer side, *2 acyl side, *3 side chain or, on linkers, in order; H or OH if unused. Where a SMILES comes first, the peptide text is derived from it. Bridges are numbered along the chain shown (N, C = ends). [ ]: non-standard residue; d: D form. The star is where a group is joined. X2 = O=C(CCOCC(COCCC(=O)NCCOCCOCCOCCOC[C@H]1OC[C@H](Nc2cncc(C(F)(F)F)n2)[C@@H](O)[C@H]1O)NCC(=O)*)NCCOCCOCCOCCOC[C@H]1OC[C@H](Nc2cncc(C(F)(F)F)n2)[C@@H](O)[C@H]1O; X1 = O=C([C@@H]1C[C@H](N[*:3])CN1[*:1])[*:2]

Assays:
IgG = assay: Affinity to IgG by surface plasmon resonance (SPR); format: binding
Method: Immobilization levels ranging from 1000-1300 resonance units (RU) are obtained. The running buffer is 10 mM HEPES, pH 7.4, 400 mM NaCl, 0.005% P20, […].

[1] = biological target: T1, ASGPR receptor on the cell surface (HepG2 cells) (Homo sapiens, UniProt P07306); assay: Ternary complex formation assay (flow cytometry, HepG2); format: cell-based
T1 construct: host or cells: HepG2
T1 sequence (P07306 1-291): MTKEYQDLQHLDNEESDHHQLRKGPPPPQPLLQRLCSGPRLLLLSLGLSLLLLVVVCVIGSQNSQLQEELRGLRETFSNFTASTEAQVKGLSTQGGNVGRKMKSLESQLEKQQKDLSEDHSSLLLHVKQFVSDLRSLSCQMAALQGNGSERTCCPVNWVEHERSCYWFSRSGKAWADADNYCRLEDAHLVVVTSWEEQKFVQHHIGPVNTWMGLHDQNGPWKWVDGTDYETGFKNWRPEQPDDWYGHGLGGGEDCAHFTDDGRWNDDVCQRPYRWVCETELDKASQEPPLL
T1 sequence (P07307 1-311 partner): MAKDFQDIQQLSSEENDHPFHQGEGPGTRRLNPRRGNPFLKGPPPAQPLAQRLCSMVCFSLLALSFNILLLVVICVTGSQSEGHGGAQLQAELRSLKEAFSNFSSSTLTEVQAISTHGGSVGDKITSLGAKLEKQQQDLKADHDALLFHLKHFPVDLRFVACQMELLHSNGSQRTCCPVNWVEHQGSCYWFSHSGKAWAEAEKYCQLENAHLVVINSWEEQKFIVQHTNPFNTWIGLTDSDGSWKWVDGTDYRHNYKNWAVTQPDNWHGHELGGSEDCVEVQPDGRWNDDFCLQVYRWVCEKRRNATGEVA
How it was run: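 HepG2 cells (1×10^5/well) incubated 1 h at 4 °C with 100 nM AF488-labeled anti-human IgG plus serial IgG-based degrader, or 100 nM AF488 rabbit anti-DNP plus serial DNP-based degrader. After washing, cell-associated AF488 MFI read by flow cytometry; peak MFI marks optimal degrader concentration for ternary complex.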

HepG2 cells = assay: Cellular uptake assay of AF488-labeled antibody (HepG2); format: cell-based; details: HepG2 cells
How it was run: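 Ternary-complex uptake via ASGPR was imaged after fixation: the read-out is AF488-positive HepG2 cells divided by total DAPI nuclei. Degrader dilutions (IgG- or DNP-based, 0.1% DMSO final) were co-incubated 6 h at 37° C. with 100 nM of the corresponding fluorescent antibody.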

ASGPR = biological target: T2, ASGPR (Homo sapiens, UniProt P07306); assay: Affinity to ASGPR by surface plasmon resonance (SPR)
T2 sequence (P07306 1-291): T1 sequence (P07306 1-291)

[2] = 100 nM AF488-labeled antibody, 37° C. for 6 hours, class symbols, read-out: Uptake Assay EC50
[3] = HepG2 cells, ternary complex formation, read-out: TCF EC50

Kd (ASGPR)	Kd (IgG; SPR, read-out: IgG KD)	EC50 ([1]; HepG2 cells, 100 nM AF488-labeled antibody, 1 hour at 4° C., class symbols, read-out: Ternary Complex EC50)	EC50 [1, 3]	EC50 (HepG2 cells; read-out: Uptake EC50)	Kd (ASGPR; read-out: ASGPR KD, SPR)	Structure (SMILES)	Kd (IgG; Biacore 8K, 25° C., IgG on CM5 chip, read-out: IgG SPR Binding Kd)	EC50 [1]	EC50 (HepG2 cells; [2])	EC50 ([1]; TCF EC50, HepG2 cells, ternary complex formation)
< 100 nM	< 100 nM	< 100 nM	< 100 nM	< 100 nM	< 100 nM	CC(C)C[C@@H]1NC(=O)[C@H](Cc2cnc[nH]2)NC(=O)[C@H](Cc2c[nH]c3ccccc23)NC(=O)[C@H](C)NC(=O)[C@@H]2CSSC[C@H](NC(=O)[C@H](Cc3c[nH]c4ccccc34)NC(=O)[C@H](C(C)C)NC(=O)[C@H](CC(C)C)NC(=O)[C@H](CCC(=O)O)NC(=O)CNC1=O)C(=O)N[C@@H]([C@@H](C)O)C(=O)N1CCC[C@@H]1C(=O)N1C[C@@H](NC(=O)CCCc3cn(C[C@H]4OC[C@H](Nc5cncc(C(F)(F)F)n5)[C@@H](O)[C@H]4O)nn3)C[C@H]1C(=O)N[C@@H](CC(=O)O)C(=O)N2 [Compound 51]	–	–	< 100 nM	–
< 100 nM	< 100 nM	–	< 100 nM	< 100 nM	–	CC(C)C[C@@H]1NC(=O)[C@H](Cc2cnc[nH]2)NC(=O)[C@H](Cc2c[nH]c3ccccc23)NC(=O)[C@H](C)NC(=O)[C@@H]2CSSC[C@H](NC(=O)[C@H](Cc3c[nH]c4ccccc34)NC(=O)[C@H](C(C)C)NC(=O)[C@H](CC(C)C)NC(=O)[C@H](CCC(=O)O)NC(=O)CNC1=O)C(=O)N[C@@H]([C@@H](C)O)C(=O)N1CCC[C@@H]1C(=O)N1C[C@@H](NC(=O)CNC(COCCC(=O)NC[C@H]3OC[C@H](Nc4cncc(C(F)(F)F)n4)[C@@H](O)[C@H]3O)COCCC(=O)NC[C@H]3OC[C@H](Nc4cncc(C(F)(F)F)n4)[C@@H](O)[C@H]3O)C[C@H]1C(=O)N[C@@H](CC(=O)O)C(=O)N2 [Compound 65]	–	–	–	–
100 to 500 nM	< 100 nM	–	< 100 nM	< 100 nM	–	CC(C)C[C@@H]1NC(=O)[C@H](Cc2cnc[nH]2)NC(=O)[C@H](Cc2c[nH]c3ccccc23)NC(=O)[C@H](C)NC(=O)[C@@H]2CSSC[C@H](NC(=O)[C@H](Cc3c[nH]c4ccccc34)NC(=O)[C@H](C(C)C)NC(=O)[C@H](CC(C)C)NC(=O)[C@H](CCC(=O)O)NC(=O)CNC1=O)C(=O)N[C@@H]([C@@H](C)O)C(=O)N1CCC[C@@H]1C(=O)N1C[C@@H](NC(=O)CCN3CCN(CC(=O)NC[C@H]4OC[C@H](Nc5cncc(C(F)(F)F)n5)[C@@H](O)[C@H]4O)CC3)C[C@H]1C(=O)N[C@@H](CC(=O)O)C(=O)N2 [Compound 63]	–	–	–	–

Structure (SMILES)	Kd (ASGPR)	Kd (IgG; SPR, read-out: IgG KD)	EC50 ([1]; HepG2 cells, 100 nM AF488-labeled antibody, 1 hour at 4° C., class symbols, read-out: Ternary Complex EC50)	EC50 [1, 3]	EC50 (HepG2 cells; read-out: Uptake EC50)	Kd (ASGPR; read-out: ASGPR KD, SPR)	Kd (IgG; Biacore 8K, 25° C., IgG on CM5 chip, read-out: IgG SPR Binding Kd)	EC50 [1]	EC50 (HepG2 cells; [2])	EC50 ([1]; TCF EC50, HepG2 cells, ternary complex formation)
CC(C)C[C@@H]1NC(=O)[C@H](Cc2c[nH]cn2)NC(=O)[C@H](Cc2c[nH]c3ccccc23)NC(=O)[C@H](C)NC(=O)[C@@H]2CSSC[C@H](NC(=O)[C@H](Cc3c[nH]c4ccccc34)NC(=O)[C@H](C(C)C)NC(=O)[C@H](CC(C)C)NC(=O)[C@H](CCC(=O)O)NC(=O)CNC1=O)C(=O)N[C@@H]([C@@H](C)O)C(=O)N1CCC[C@@H]1C(=O)N1C[C@@H](NC(=O)CCOCCOCCOCCNC(=O)CCCc3cn(CCCCCC(=O)NC(COCCC(=O)NCCOCCOCCOCCOC[C@@]45CO[C@@H](O4)[C@H](Nc4nc(Cl)ns4)[C@@H](O)[C@H]5O)COCCC(=O)NCCOCCOCCOCCOC[C@@]45CO[C@@H](O4)[C@H](Nc4nc(Cl)ns4)[C@@H](O)[C@H]5O)nn3)C[C@H]1C(=O)N[C@@H](CC(=O)O)C(=O)N2 [Compound 8]	< 100 nM	–	–	–	–	–	< 100 nM	< 100 nM	< 100 nM	–
CC(C)C[C@@H]1NC(=O)[C@H](C)NC(=O)CNC(=O)[C@H](CC(C)C)NC(=O)[C@H](Cc2c[nH]cn2)NC(=O)[C@H](Cc2c[nH]c3ccccc23)NC(=O)[C@H](C)NC(=O)[C@@H]2CSSC[C@H](NC(=O)[C@H](Cc3c[nH]c4ccccc34)NC(=O)[C@H](C(C)C)NC1=O)C(=O)N[C@@H]([C@@H](C)O)C(=O)N1CCC[C@@H]1C(=O)N1C[C@@H](NC(=O)CNC(COCCC(=O)NCCOCCOCCOCCOC[C@H]3OC[C@H](Nc4cncc(C(F)(F)F)n4)[C@@H](O)[C@H]3O)COCCC(=O)NCCOCCOCCOCCOC[C@H]3OC[C@H](Nc4cncc(C(F)(F)F)n4)[C@@H](O)[C@H]3O)C[C@H]1C(=O)N[C@@H](CC(N)=O)C(=O)N2 [Compound 79] (cyclo(ALVWCT[dP][X1](X2)NCAWHLG); disulfide 5-10)	< 100 nM	< 100 nM	–	–	< 100 nM	–	–	–	–	< 100 nM
